Test results as given in ChEMBL document CHEMBL1773071, “Development of tricyclic hydroxy-1H-pyrrolopyridine-trione containing HIV-1 integrase inhibitors” (Bioorg Med Chem Lett, 2011).

Key:
[1] = target: T1, Human immunodeficiency virus type 1 integrase (Human immunodeficiency virus 1, UniProt Q7ZJM1); experiment: Inhibition of HIV1 recombinant integrase strand transfer activity expressed in Escherichia coli after 30 mins using [32P]-labeled oligonucleotide as a substrate by densitometric analysis
T1 sequence (Q7ZJM1 whole entry): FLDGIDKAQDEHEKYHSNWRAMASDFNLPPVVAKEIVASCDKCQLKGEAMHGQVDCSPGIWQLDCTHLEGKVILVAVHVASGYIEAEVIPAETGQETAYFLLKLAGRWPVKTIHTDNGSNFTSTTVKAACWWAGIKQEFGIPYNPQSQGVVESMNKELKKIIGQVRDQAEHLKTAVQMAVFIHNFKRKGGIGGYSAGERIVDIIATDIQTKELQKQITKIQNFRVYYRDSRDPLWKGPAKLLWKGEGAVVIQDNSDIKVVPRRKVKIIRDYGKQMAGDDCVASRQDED

[2] = target: T1, Human immunodeficiency virus type 1 integrase; experiment: Inhibition of HIV1 recombinant integrase 3'-processing activity expressed in Escherichia coli after 30 mins using [32P]-labeled oligonucleotide as a substrate by densitometric analysis
[3] = target: T1, Human immunodeficiency virus type 1 integrase; experiment: Inhibition of HIV1 recombinant integrase strand transfer activity expressed in Escherichia coli after 60 mins using [32P]-labeled oligonucleotide as a substrate by densitometric analysis in presence of cofactor magnesium
[4] = target: T1, Human immunodeficiency virus type 1 integrase; experiment: Inhibition of HIV1 recombinant integrase 3'-processing activity expressed in Escherichia coli after 60 mins using [32P]-labeled oligonucleotide as a substrate by densitometric analysis in presence of cofactor manganese
[5] = tested on: Human immunodeficiency virus 1; experiment: Resistant fold, ratio of EC50 for HIV1 harboring integrase G140S/Q148H mutant to EC50 for HIV1 harboring wild-type integrase; assay type: functional
[6] = tested on: Human immunodeficiency virus 1; experiment: Resistant fold, ratio of EC50 for HIV1 harboring integrase N155H mutant to EC50 for HIV1 harboring wild-type integrase; assay type: functional
[7] = tested on: Human immunodeficiency virus 1; experiment: Resistant fold, ratio of EC50 for HIV1 harboring integrase Y143R mutant to EC50 for HIV1 harboring wild-type integrase; assay type: functional
[8] = target: T1, Human immunodeficiency virus type 1 integrase; experiment: Inhibition of HIV1 recombinant integrase strand transfer activity expressed in Escherichia coli after 60 mins using [32P]-labeled oligonucleotide as a substrate by densitometric analysis in presence of cofactor manganese
HOS = experiment: Cytotoxicity against human HOS cells assessed as ATP level after 48 hrs by luciferase reporter assay; assay type: cell-based
[9] = tested on: Human immunodeficiency virus 1; experiment: Antiviral activity against HIV1 harboring wild-type integrase infected in human HOS cells; assay type: functional, organism-based; settings: Human immunodeficiency virus 1, HOS
[10] = target: T1, Human immunodeficiency virus type 1 integrase; experiment: Inhibition of HIV1 recombinant integrase 3'-processing activity expressed in Escherichia coli after 60 mins using [32P]-labeled oligonucleotide as a substrate by densitometric analysis in presence of cofactor magnesium

O=C1c2c(c3n(c(=O)c2O)CCC3)C(=O)N1Cc1ccc(F)c(Cl)c1 showed an IC50 [1] of 10.9 µM and an IC50 [2] of over 111 µM.

In the case of O=C1c2c(c3n(c(=O)c2O)CCCC3)C(=O)N1Cc1ccc(F)c(Cl)c1, the IC50 [3] is reported as 9.1 µM, the IC50 [4] is reported as 28 µM and the “Ratio EC50” value [5] is reported as 2. The IC50 [1] was 9.1 µM, the “Ratio EC50” value [6] was 3 and the IC50 [2] was over 111 µM. The “Ratio EC50” value [7] was 4, the IC50 [8] was 1.2 µM and the CC50 (HOS) was 291 µM. For the same compound, the EC50 [9] was 61 µM and the IC50 [10] was over 111 µM.

O=C1c2c(c3n(c(=O)c2O)CCCCC3)C(=O)N1Cc1ccc(F)c(Cl)c1 was tested, and the IC50 [1] was 6 µM and the IC50 [2] was over 111 µM.

In the case of O=C1c2c(c3n(c(=O)c2O)CCCCCC3)C(=O)N1Cc1ccc(F)c(Cl)c1, the IC50 [1] is reported as 5.4 µM and the IC50 [2] is reported as over 111 µM.

With O=C1c2c(c3n(c(=O)c2O)CCCCC3)C(=O)N1Cc1ccc(F)cc1 the IC50 [1] was 10.4 µM and the IC50 [2] was over 111 µM.

With O=C1c2c(c3n(c(=O)c2O)CCCCC3)C(=O)N1Cc1ccc(F)c(F)c1 the IC50 [1] was 6.01 µM and the IC50 [2] was over 111 µM.

For O=C1c2c(c3n(c(=O)c2O)CCCCC3)C(=O)N1Cc1cccc(Cl)c1F, the IC50 [1] was 9.2 µM and the IC50 [2] was over 111 µM.

Compound O=C1c2c(c3n(c(=O)c2O)CCCCC3)C(=O)N1Cc1ccccc1 has an IC50 [1] of over 111 µM and an IC50 [2] of over 111 µM.

Work on O=C1c2c(c3n(c(=O)c2O)CCCCC3)C(=O)N1Cc1cccc2ccccc12 yielded an IC50 [1] of 90.5 µM and an IC50 [2] of over 111 µM.

With Cc1nnc(C(=O)NC(C)(C)c2nc(C(=O)NCc3ccc(F)cc3)c(O)c(=O)n2C)o1 the EC50 [9] was 0.004 µM.

O=C1c2ccc(O)c(O)c2C(=O)N1Cc1ccc(F)cc1 gave an IC50 [1] of 5.3 µM.

Work on O=C1c2ccc(O)c(O)c2C(=O)N1Cc1cccc(Cl)c1F yielded an IC50 [1] of 1.7 µM.

O=C1c2ccc(O)c(O)c2C(=O)N1Cc1ccc(F)c(F)c1 gave an IC50 [1] of 0.14 µM.
